According to US20250289810A1, “Compounds As NLRP3 Inflammasome Inhibitors And Their Use As Medicaments” (MAM-AGE S.R.L., priority 2022, published 2025):
“Also recorded” adds a separate entry of the source.

Assays:
[1] = preclinical studies; cited from earlier work
[2] = clinical development, phase II; cited from earlier work
[3] = tested on: chronic myeloid leukemia; details: cited from earlier work
[4] = tested on: pancreatic adenocarcinoma; details: cited from earlier work
[5] = tested on: head and neck squamous cell carcinoma; details: head and neck squamous cell carcinoma mouse model; cited from earlier work
[6] = molecular target: T1, NLRC4 inflammasome (Mus musculus, UniProt Q3UP24); assay: NLRC4 inflammasome activation in LPS-primed BMDM transfected with flagellin of S. typhimurium (IL-1β ELISA); format: cell-based; details: LPS 100 ng/ml 3 hours, compound 1 μm 30 minutes, flagellin 100 ng/ml 2 hours
T1 construct: endogenous in cells; host or cells: mouse BMDM, LPS-primed, transfected with S. typhimurium flagellin
T1 sequence (Q3UP24 whole entry): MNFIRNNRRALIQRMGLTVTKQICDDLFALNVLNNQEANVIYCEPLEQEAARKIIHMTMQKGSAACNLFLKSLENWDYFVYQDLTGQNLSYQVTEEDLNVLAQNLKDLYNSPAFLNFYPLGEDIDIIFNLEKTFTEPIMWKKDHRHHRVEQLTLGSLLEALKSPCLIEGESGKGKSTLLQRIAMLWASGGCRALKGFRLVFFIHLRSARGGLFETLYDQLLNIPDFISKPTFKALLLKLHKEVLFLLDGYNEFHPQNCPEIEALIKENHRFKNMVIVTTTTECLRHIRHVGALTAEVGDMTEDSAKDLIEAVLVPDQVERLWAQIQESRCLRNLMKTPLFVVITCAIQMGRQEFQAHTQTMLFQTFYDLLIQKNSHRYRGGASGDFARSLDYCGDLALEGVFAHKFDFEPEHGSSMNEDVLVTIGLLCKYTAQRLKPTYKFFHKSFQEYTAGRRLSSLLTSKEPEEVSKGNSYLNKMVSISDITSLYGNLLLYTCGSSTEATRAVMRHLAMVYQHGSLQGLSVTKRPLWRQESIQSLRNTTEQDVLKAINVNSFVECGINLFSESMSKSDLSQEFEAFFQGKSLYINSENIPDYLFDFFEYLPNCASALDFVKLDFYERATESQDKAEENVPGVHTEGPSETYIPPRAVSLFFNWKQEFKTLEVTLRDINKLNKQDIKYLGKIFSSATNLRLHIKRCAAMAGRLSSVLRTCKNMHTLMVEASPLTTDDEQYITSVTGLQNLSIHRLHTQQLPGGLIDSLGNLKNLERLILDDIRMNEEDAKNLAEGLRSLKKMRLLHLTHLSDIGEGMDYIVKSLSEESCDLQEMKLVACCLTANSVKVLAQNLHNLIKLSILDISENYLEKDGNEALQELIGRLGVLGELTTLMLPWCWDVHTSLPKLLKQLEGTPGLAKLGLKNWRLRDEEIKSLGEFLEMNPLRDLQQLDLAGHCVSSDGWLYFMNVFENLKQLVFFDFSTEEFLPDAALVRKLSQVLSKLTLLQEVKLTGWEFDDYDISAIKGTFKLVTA
Procedure: (§1) The selectivity of compound 4 as an inhibitor of NLRP3 was then evaluated with respect to NLRC4 and absent in melanoma 2 (AIM2) inflammasomes. For activation of NLRC4 inflammasome, BMDM were treated with LPS (100 ng/ml) for 3 hours. Subsequently, the culture medium was removed and replaced with a serum-free medium containing compound 4 (1 μm for 30 minutes), finally the cells were transfected with flagellin (100 ng/ml) by S. typhimurium for 2 hours. The supernatant was tested by ELISA. […] The effect of the same compounds was examined on the non-NLR AIM2 inflammasome by transfecting BMDM with the dsDNS analogue Poly (dA:dT).
The selectivity of compounds 6c and 10 of Formula (III) as inhibitors of NLRP3 was then evaluated with respect to NLRC4 inflammasome. For activation of NLRC4 inflammasome, BMDM were treated with LPS (100 ng/ml) for 3 hours. Subsequently the culture medium was removed and replaced with a serum-free medium containing […] (1 μm for 30 minutes), finally the cells were transfected with flagellin (100 ng/ml) by S. typhimurium for 2 hours. The supernatant was tested by ELISA.

[7] = molecular target: T2, AIM2 inflammasome (Mus musculus, UniProt Q91VJ1); assay: AIM2 inflammasome activation in BMDM transfected with Poly(dA:dT) (IL-1β secretion); format: cell-based
T2 construct: non-NLR AIM2 inflammasome by transfecting BMDM with the dsDNS analogue Poly (dA:dT); endogenous in cells; host or cells: mouse BMDM transfected with poly(dA:dT)
T2 sequence (Q91VJ1 1-354): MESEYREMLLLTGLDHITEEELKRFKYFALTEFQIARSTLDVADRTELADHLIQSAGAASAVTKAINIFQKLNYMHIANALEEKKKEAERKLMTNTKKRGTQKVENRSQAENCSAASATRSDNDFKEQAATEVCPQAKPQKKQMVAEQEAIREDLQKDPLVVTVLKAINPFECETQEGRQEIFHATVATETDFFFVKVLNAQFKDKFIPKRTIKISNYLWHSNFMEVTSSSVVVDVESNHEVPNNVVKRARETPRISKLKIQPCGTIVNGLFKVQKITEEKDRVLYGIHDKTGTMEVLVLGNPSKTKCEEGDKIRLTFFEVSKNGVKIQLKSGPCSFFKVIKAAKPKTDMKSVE
Procedure: as §1

[8] = tested on: THP-1 cells; assay: RealTime-Glo MT Cell Viability assay on THP-1 cells; format: cell-based, human; details: 1 μM, 48 hours
Procedure: (§2) Cell viability was evaluated on THP-1 cells using realtime-Glo” MT Cell Viability Assay (Promega Italia, MI). Briefly, the cells were seeded in a 96 multiwell (10×10^4 cells/well), treated with the selected compound of Formula (II), and incubated for 48 hours. After treatment, the cells were incubated for 10 minutes in the incubator with the realtime-Glo” reagent following protocol. The luminescence was measured every 12 hours in the Glomax Multi Detection System Promega. The luminescence signal correlates with the number of metabolically active cells.
as §2, with “compound,” for “compound of Formula (II),”, “cells. The results represent the mean luminescence values (RLU)±SEM.” for “cells.”

[9] = tested on: B16-F10cytLUC melanoma cells; assay: Tumor growth of B16-F10cytLUC melanoma cells inoculated subcutaneously in C57BL/6 mice; format: in vivo; details: 25 mg/Kg intraperitoneal thrice weekly
Procedure: A total of 1×10^6 B16-F10 melanoma cells transfected with cytluc (B16-F10cytLUC) were subcutaneously inoculated into females, 6- to 8-week-old C57BL/6 mice. Tumor growth was monitored daily, and tumor volumes were measured every other day with calipers using the following equation: Volume=π/6×(a×b2), where “a” is the major diameter and “b” is the minor diameter. As soon as the mass was palpable, mice were randomly divided (5 mice per group) into the treatment groups and the control group, with 5 mice per group. For NLRP3 inflammasome inhibition, mice were intraperitoneal injected with selected molecules thrice weekly at 25 mg/Kg; control mice received equal volumes of DMSO.
Luciferase luminescence was followed by a total body luminometer (IVIS Lumina, Caliper-PerkinElmer).

[10] = tested on: B16-F10 melanoma cells; assay: B16-F10 cancer cell proliferation (crystal violet growth curve); format: cell-based; details: 1 μM, 5 days
Procedure: B16-F10 cells were treated with selected inhibitors (1 μM) then were counted with a Burker chamber and plated in five sets of 4 wells of a 24-well plate. Starting from the following day (day 1) 1 set of wells (at days 2, 3, 4 and 5) was washed once with PBS, fixed in 4% formaldehyde solution for 15 min at room temperature, and then kept in PBS at 4° C. At day 5, all the wells were stained with crystal violet for 20 minutes, lysed with 10% acetic acid, then the absorbance was read at 595 nm.

[11] = tested on: B16-F10 cells; assay: Transwell co-culture of peritoneal macrophages and B16-F10 cells (tumor microenvironment); format: cell-based; details: macrophages: LPS 1 μg/mL 2 hours, compound 1 μM 30 minutes, ATP 1 hour; 48 h
Procedure: (§3) Co-culture of peritoneal macrophages and B16-F10 cells were performed using Transwell chambers with 0.4-μm pores on the membranes (Corning, Corning, NY, USA). Peritoneal macrophages and B16-F10 cells were cultured in the lower and upper compartments of the Transwell chamber, respectively, for 48 h. Peritoneal macrophages were seeded at a density of 2×10^5 cells and treated with LPS (1 μg/mL) for 2 hours, then DMSO or compound 4 (1 μM) of Formula (II) for 30 minutes and finally stimulated with ATP for 1 hour. B16-F10 cells were seeded at a density of 2×10^3 cells each well.
as §3, with “compounds of Formula (III)” for “compound 4”, “μM)” for “μM) of Formula (II)”

## CC(C)(O)c1coc(S(=O)(=O)NC(=O)Nc2c3c(cc4c2CCC4)CCC3)c1 [MCC950, N-((1,2,3,5,6,7-hexahydro-s-indacen-4-yl)carbamoyl)-4-(2-hydroxypropan-2-yl)furan-2-sulfonamide]
[1]
  Oral bioavailability: good oral bioavailability
[2]
  Serum liver enzyme levels / hepatotoxicity: hepatotoxicity problems; also recorded: elevation of serum liver enzyme levels
[3]
  Cell proliferation: suppress cell proliferation
[4]
  Cell proliferation: suppress cell proliferation
[5]
  Tumor growth: delay tumor growth

## Nc1ccc(S(=O)(=O)N2Cc3ccccc3C[C@H]2C(=O)Nc2c3c(cc4c2CCC4)CCC3)cc1 [Compound 4 of Formula (II), (S)-2-((4-aminophenyl)sulfonyl)-N-(1,2,3,5,6,7-hexahydro-s-indacen-4-yl)-1,2,3,4-tetrahydroisoquinoline-3-carboxamide]
[6]
  Effect on activation of NLRC4 inflammasome triggered by flagellin S. typhimurium: no effect
[7]
  IL-1β secretion on AIM2 inflammasome activation: A reduction in the amount of IL-1β secretion was not observe
[8]
  Cytotoxicity / cell viability of THP-1 cells: no cytotoxicity
[9]
  Reduction of tumor mass vs vehicle (DMSO): about 50%
[10]
  Direct effect on cell proliferation of B16-F10 melanoma cells: no direct effect
[11]
  Growth of B16-F10 cells co-cultured with treated peritoneal macrophages: treated with the vehicle alone grew more than B16-F10 cells in contact with peritoneal macrophages treated with compound 4

## CC(C)[C@H](NS(=O)(=O)c1ccc([N+](=O)[O-])cc1)C(=O)Nc1c2c(cc3c1CCC3)CCC2 [Compound 6c of Formula (III), (S)—N-(1,2,3,5,6,7-hexahydro-s-indacen-4-yl)-3-methyl-2-((4-nitrophenyl)sulfonamido)butanamide]
[6]
  Effect on activation of NLRC4 inflammasome triggered by flagellin S. typhimurium: no effect
[8]
  Cytotoxicity / cell viability of THP-1 cells: no cytotoxicity

## Nc1ccc(S(=O)(=O)N[C@@H](Cc2ccc(O)cc2)C(=O)Nc2c3c(cc4c2CCC4)CCC3)cc1 [Compound 10 of Formula (III), (S)-2-((4-aminophenyl)sulfonamido)-N-(1,2,3,5,6,7-hexahydro-s-indacen-4-yl)-3-(4-hydroxyphenyl)propanamide]
[6]
  Effect on activation of NLRC4 inflammasome triggered by flagellin S. typhimurium: no effect
[8]
  Cytotoxicity / cell viability of THP-1 cells: no cytotoxicity
